From ChEMBL document CHEMBL1201862, “PubChem BioAssay data set” (2004)
The source made the active and inactive calls.

Columns and labels:
[1] = molecular target: T1, Sentrin-specific protease 8 (Homo sapiens, UniProt Q96LD8); format: functional;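 further: luminescence read-out of SENP8 inhibition, dose-response confirmation following an ultra-high-throughput screen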
T1 sequence (Q96LD8 whole entry): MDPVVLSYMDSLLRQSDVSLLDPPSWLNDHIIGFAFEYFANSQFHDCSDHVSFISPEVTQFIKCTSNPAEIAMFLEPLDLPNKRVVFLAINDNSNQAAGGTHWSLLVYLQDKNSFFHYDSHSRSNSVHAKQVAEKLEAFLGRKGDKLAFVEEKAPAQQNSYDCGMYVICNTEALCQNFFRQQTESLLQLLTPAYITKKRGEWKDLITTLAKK

Caspase-3 = molecular target: T2, Caspase-3 (Homo sapiens, UniProt P42574); format: functional;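 further: Dose-response selectivity test against caspase-3 for candidate inhibitors of sentrin-specific proteases (SENPs)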
T2 sequence (P42574 whole entry): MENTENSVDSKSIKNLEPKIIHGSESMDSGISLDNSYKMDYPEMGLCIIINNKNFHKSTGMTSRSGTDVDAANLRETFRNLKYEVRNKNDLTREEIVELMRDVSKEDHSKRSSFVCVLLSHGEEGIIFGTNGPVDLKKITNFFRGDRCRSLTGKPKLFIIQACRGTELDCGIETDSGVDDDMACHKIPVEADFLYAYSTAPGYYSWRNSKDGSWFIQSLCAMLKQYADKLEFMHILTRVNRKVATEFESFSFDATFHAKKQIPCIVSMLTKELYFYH

[2] = molecular target: T3, Sentrin-specific protease 7 (Homo sapiens, UniProt Q9BQF6); format: functional;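 further: Luminescence-based dose-response confirmation of ultra-high-throughput screening hits, measuring inhibition of SENP7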
T3 sequence (Q9BQF6 whole entry): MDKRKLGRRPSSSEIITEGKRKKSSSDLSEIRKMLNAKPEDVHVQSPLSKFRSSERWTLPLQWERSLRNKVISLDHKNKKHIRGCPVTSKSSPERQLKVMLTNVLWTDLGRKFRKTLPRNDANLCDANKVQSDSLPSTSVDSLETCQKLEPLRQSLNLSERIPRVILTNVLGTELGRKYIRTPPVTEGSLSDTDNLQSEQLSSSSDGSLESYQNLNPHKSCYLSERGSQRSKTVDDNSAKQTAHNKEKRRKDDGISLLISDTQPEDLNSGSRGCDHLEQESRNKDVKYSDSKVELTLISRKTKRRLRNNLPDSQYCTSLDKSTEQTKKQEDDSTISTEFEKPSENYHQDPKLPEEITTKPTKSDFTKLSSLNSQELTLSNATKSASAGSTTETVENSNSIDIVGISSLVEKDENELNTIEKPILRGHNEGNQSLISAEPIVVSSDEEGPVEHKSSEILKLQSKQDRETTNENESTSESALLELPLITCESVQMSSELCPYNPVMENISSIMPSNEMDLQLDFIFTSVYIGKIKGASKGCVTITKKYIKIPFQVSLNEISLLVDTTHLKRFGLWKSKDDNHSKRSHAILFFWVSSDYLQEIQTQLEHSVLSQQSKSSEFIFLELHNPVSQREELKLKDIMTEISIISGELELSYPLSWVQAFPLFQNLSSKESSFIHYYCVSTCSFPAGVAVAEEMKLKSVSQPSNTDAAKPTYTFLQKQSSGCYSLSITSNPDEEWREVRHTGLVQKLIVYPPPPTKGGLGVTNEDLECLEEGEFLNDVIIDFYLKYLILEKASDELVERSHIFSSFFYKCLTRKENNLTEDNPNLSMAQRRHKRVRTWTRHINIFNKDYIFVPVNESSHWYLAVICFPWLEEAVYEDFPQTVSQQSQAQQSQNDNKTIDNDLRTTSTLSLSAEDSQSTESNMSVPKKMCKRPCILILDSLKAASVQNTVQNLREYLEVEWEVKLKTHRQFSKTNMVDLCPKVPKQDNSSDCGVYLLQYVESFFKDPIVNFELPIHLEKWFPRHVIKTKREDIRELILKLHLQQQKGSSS

[3] = molecular target: T4, Sentrin-specific protease 6 (Homo sapiens, UniProt Q9GZR1); format: functional;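 further: Luminescence-based dose-response confirmatory assay of SENP6 inhibition, following up an ultra-high-throughput screen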
T4 sequence (Q9GZR1 whole entry): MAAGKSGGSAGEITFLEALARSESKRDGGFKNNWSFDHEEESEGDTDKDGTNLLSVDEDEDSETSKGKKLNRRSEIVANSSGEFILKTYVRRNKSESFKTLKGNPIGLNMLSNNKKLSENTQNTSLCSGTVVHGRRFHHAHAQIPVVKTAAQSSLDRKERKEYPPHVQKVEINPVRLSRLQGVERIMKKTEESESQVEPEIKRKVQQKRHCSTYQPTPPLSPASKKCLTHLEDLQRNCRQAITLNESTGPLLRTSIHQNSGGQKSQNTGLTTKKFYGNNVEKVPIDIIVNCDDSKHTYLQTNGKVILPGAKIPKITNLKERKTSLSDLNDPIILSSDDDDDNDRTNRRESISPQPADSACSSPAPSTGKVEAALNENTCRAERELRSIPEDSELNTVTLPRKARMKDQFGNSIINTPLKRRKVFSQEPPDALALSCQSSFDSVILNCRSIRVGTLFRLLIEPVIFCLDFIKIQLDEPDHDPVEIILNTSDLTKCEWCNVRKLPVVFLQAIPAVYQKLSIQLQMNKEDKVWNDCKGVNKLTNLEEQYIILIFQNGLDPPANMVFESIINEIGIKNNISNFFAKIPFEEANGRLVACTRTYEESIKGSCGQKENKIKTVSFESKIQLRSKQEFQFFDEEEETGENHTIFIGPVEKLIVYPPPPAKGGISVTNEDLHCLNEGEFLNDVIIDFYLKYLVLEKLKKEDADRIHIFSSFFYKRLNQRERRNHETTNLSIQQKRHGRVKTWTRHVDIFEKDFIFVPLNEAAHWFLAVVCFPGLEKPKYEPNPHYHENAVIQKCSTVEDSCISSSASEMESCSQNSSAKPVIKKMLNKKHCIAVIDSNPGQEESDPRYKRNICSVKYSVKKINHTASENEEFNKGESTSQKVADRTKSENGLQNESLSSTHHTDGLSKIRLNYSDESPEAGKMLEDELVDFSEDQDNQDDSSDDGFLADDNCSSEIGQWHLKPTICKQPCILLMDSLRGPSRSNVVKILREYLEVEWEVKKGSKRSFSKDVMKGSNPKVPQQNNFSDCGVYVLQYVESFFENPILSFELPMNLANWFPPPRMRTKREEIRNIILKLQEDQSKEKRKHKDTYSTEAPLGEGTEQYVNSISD

[4] = Vero E6 cell cytotoxicity, dose response, cytotoxicity control for non-replicating M. tuberculosis project, secondary assay (AID 492998); format: functional, VeroE6; details: Vero C1008
cells = format: functional
[5] = THP-1 cell cytotoxicity, dose response, cytotoxicity control for non-replicating M. tuberculosis project (AID 489025); format: functional
[6] = cytotoxicity toward NIH3T3 fibroblasts, dose response, counter-screen, cell-based, ATP luminescence, mouse fibroblasts (AID 2010); format: functional;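 further: cells exposed to compound for about 90 hours before reading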
[7] = inhibitors of intracellular T. cruzi replication, confirmation, NIH3T3 host cells, beta-gal luminescence (AID 2044); format: functional, cell-based;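 further: intracellular parasites grown in NIH/3T3 mouse fibroblasts as host cells; luminescent beta-galactosidase reporter signal from transgenic T. cruzi replicating inside host cells; inhibitors lower the luminescence signal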
[8] = molecular target: T5, Ubiquitin-conjugating enzyme E2 N (Homo sapiens, UniProt P61088); format: functional;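 further: Dose-response confirmation in a TR-FRET assay detecting UBC13-driven polyubiquitin chain formation, inhibition measured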
T5 sequence (P61088 whole entry): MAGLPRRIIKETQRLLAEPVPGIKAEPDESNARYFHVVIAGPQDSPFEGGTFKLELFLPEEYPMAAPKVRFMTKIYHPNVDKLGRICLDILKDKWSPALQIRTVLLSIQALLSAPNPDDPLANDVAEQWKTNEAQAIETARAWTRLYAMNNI

[9] = molecular target: T6, Histone-lysine N-methyltransferase NSD2 (Homo sapiens, UniProt O96028); format: biochemical
T6 sequence (O96028 whole entry): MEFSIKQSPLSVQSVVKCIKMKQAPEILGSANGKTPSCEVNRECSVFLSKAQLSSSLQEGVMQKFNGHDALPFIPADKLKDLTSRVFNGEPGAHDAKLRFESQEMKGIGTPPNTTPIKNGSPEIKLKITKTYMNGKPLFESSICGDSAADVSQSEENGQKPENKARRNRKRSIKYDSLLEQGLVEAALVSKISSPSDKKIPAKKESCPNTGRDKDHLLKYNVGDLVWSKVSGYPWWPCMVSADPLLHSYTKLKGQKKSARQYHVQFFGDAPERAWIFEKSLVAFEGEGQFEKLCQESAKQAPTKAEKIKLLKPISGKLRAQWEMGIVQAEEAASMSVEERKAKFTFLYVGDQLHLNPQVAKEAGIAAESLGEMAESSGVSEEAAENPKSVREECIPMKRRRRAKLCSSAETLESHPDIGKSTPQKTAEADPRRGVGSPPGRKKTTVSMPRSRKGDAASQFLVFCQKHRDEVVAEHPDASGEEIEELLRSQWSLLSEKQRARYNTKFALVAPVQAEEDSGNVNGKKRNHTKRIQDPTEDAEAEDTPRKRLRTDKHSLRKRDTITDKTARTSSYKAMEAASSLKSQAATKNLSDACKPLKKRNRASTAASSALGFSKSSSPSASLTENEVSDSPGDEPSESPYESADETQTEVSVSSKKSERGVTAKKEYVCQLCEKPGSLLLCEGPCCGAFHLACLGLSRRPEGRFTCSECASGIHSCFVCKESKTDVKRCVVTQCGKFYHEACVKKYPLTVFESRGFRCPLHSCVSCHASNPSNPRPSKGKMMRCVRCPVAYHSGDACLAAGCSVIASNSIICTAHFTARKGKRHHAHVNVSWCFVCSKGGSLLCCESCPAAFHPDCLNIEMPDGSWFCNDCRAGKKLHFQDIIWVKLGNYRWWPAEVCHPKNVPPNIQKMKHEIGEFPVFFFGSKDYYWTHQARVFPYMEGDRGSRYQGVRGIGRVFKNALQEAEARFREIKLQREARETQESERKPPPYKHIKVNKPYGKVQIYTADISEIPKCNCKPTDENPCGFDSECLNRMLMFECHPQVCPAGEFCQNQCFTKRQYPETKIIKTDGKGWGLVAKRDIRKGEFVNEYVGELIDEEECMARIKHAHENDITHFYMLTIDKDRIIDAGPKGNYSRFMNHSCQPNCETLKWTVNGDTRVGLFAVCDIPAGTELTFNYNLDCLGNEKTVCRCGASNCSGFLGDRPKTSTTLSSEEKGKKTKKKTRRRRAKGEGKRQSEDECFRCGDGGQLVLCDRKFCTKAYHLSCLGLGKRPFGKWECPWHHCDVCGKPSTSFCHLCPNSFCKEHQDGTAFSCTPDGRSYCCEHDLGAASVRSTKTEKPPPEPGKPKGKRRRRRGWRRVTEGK

SN12K1 = test: cells; format: functional; details: Homo sapiens
P388/ADR = test: cells; format: functional; details: Mus musculus
P388 = test: cells; format: functional; details: Mus musculus
Cytochrome P450 3A4 = Cytochrome P450 3A4 (Homo sapiens, UniProt P08684);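 further: CYP3A4 tested as one member of a cytochrome P450 panel screen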
Cytochrome P450 3A4, sequence (P08684 whole entry): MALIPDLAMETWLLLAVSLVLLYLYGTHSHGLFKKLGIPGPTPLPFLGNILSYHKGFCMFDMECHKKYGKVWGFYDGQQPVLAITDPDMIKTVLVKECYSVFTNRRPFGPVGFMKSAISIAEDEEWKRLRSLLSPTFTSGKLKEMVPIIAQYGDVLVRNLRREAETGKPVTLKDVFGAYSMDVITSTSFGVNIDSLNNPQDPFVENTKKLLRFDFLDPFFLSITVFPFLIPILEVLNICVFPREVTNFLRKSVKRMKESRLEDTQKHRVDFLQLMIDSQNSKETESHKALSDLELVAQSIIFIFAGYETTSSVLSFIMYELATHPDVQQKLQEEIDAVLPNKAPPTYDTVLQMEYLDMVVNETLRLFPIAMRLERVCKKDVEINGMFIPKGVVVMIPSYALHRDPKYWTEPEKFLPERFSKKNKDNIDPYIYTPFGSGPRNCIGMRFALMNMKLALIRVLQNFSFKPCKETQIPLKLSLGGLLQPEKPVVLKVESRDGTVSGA

SMILES: O=C(c1ccccc1)c1ccc(Cn2cc(-c3ccccc3)nn2)cc1
- IC50 [1]: 23.9 µM (active)
- IC50 (Caspase-3): 32.3 µM (active)
- IC50 [2]: 5.67 µM (active)
- IC50 [3]: 19.5 µM (active)

SMILES: O=C(CC(=O)c1ccccc1O)c1cccc(F)c1
- CC50 [4]: 16.5 µM (active)
- IC50 (cells): 17.4 µM (active)
- CC50 [5]: > 40 µM (active)

SMILES: O=C(Nc1ccccc1N1CCN(C(=O)c2ccc(Cl)cc2)CC1)c1ccc([N+](=O)[O-])o1
- CC50 [4]: 5.96 µM (active)
- EC50 [6]: 37.2 µM (active)
- EC50 [7]: 1.32 µM (active)
- CC50 [5]: 12.8 µM (active)

SMILES: CCc1ccc(OCC(=O)NNC(=O)c2cnccn2)c(Br)c1
- CC50 [4]: 18.8 µM (active)
- IC50 (cells): 9.66 µM (active)
- IC50 [8]: > 20 µM (inactive)
- CC50 [5]: > 40 µM (active)

SMILES: Oc1c2c(nc3c(-c4ccccc4)cnn13)CCCC2
- CC50 [4]: > 20 µM (active)
- IC50 (cells): 44 µM (active)
- CC50 [5]: > 40 µM (active)

SMILES: Cc1ccccc1NS(=O)(=O)c1cccc(C(=O)Nc2cccc(C(=O)O)c2)c1
- IC50 [1]: 23.7 µM (active)
- IC50 (Caspase-3): 66.7 µM (active)
- IC50 [2]: 9.34 µM (active)
- IC50 [3]: 23.3 µM (active)

SMILES: COC1=C(C)C(=O)C2=C(C1=O)C1C3CC4=C(C(=O)C(OC)=C(C)C4=O)C(CNC(=O)C(C)=O)N3C(C#N)C(C2)N1C (centres undefined)
- AC50 [9]: 8.92 µM (active)
- GI50 (SN12K1): < 0.01 µM (active)
- GI50 (P388/ADR): 0.0448 µM (active)
- GI50 (P388): 0.01 µM (active)

SMILES: CN(C)/N=N/c1ccc([N+](=O)[O-])cc1C(N)=O
- GI50 (SN12K1): > 100 µM (inactive)
- GI50 (P388/ADR): > 100 µM (inactive)
- GI50 (P388): > 100 µM (inactive)

SMILES: COc1cc(Cc2nccc3cc(OC)c(OC)cc23)c(C(C)=O)cc1OC
- GI50 (SN12K1): 20.4 µM (inactive)
- GI50 (P388/ADR): 14.5 µM (inactive)
- GI50 (P388): 1.66 µM (inactive)

SMILES: NC1=NCN(C2OC(CO)C(O)C2O)C(=O)N1 (centres undefined)
- GI50 (SN12K1): 13.9 µM (inactive)
- GI50 (P388/ADR): 10.4 µM (inactive)
- GI50 (P388): 8.57 µM (inactive)

SMILES: CCCn1cc2c3c(cccc31)C1C=C(C)CN(C)C1C2 (centres undefined)
- GI50 (SN12K1): 14.2 µM (inactive)
- GI50 (P388/ADR): 3.34 µM (inactive)
- GI50 (P388): 5.69 µM (inactive)

SMILES: C=C1C(=O)O[C@@H]2[C@H]3O[C@]3(C)CCC=C(C)CC[C@@H]12
- GI50 (SN12K1): 16.4 µM (inactive)
- GI50 (P388/ADR): 4.84 µM (inactive)
- GI50 (P388): 6.59 µM (inactive)
- AC50 (Cytochrome P450 3A4): 10 µM (inconclusive)

SMILES: CCC1(O)C(=O)OCc2c1cc1n(c2=O)Cc2cc3cc4c(cc3nc2-1)OCO4 (centres undefined)
- GI50 (SN12K1): < 0.01 µM (active)
- GI50 (P388/ADR): < 0.01 µM (active)
- GI50 (P388): < 0.01 µM (active)

SMILES: C=C(C)C(O)CC/C(C)=C/Cc1c(O)ccc(C(=O)/C=C/c2ccc(O)cc2)c1O (centres undefined) [XANTHOANGELOL B]
- IC50 [1]: 5.08 µM (active)
- IC50 (Caspase-3): 28.1 µM (active)
- IC50 [2]: 3.39 µM (active)
- IC50 [3]: 4.22 µM (active)
